Test results taken from article PMC10558864 (Heliyon, 2023).
Where no end group is shown, it is not given here.

How the values were obtained:
K. pneumoniae = assay type: cell-based, Klebsiella pneumoniae; conditions: micro broth dilution, 37 °C, 24 h, MTT indicator, triplicates
[1] = tested on: E. coli^N (standard strain); assay type: cell-based, Escherichia coli; conditions: micro broth dilution, 37 °C, 24 h, MTT indicator, triplicates
S. typhi^N = assay type: cell-based, Salmonella typhi; conditions: micro broth dilution, 37 °C, 24 h, MTT indicator, triplicates
human erythrocytes = assay: Hemolytic activity; assay type: cell-based; conditions: 1% human erythrocytes in PBS pH 7.40, 37 °C, 1 h, absorbance 570 nm
[2] = tested on: E. coli^R (resistant strain); assay type: cell-based, Escherichia coli; conditions: micro broth dilution, 37 °C, 24 h, MTT indicator, triplicates
E. coli^R = assay type: cell-based, Escherichia coli; conditions: for FIC index of Cefotaxime in combination with the peptide, E. coli^R / FIC index of Chloramphenicol in combination with the peptide, E. coli^R / FIC index of Erythromycin in combination with the peptide, E. coli^R: FIC(A) = MIC of antibiotic in the presence of peptide / MIC of antibiotic alone; for FIC index of peptide in combination with Cefotaxime, E. coli^R / FIC index of peptide in combination with Chloramphenicol, E. coli^R / FIC index of peptide in combination with Erythromycin, E. coli^R: checkerboard, FIC(A)+FIC(P); for FIC index of peptide in combination with Cefotaxime, E. coli^R / FIC index of peptide in combination with Chloramphenicol, E. coli^R / FIC index of peptide in combination with Erythromycin, E. coli^R / MIC of antibiotic alone, E. coli: 37 °C, 24 h; for MIC of antibiotic alone, E. coli: resistant strain, MTT indicator
MRSA [3] = assay type: cell-based, methicillin-resistant Staphylococcus aureus; conditions: for FIC index of Cefotaxime in combination with the peptide, MRSA / FIC index of Chloramphenicol in combination with the peptide, MRSA / FIC index of Erythromycin in combination with the peptide, MRSA: FIC(A) = MIC of antibiotic in the presence of peptide / MIC of antibiotic alone; for MIC of antibiotic alone, MRSA: MTT indicator
S. typhi^R [4] = assay type: cell-based, Salmonella typhi; conditions: micro broth dilution, 37 °C, 24 h, MTT indicator, triplicates
S. pyogenes = assay type: cell-based, Streptococcus pyogenes; conditions: micro broth dilution, 37 °C, 24 h, MTT indicator, triplicates
S. aureus = assay type: cell-based, Staphylococcus aureus; conditions: micro broth dilution, 37 °C, 24 h, MTT indicator, triplicates
S. typhi^R [5] = assay type: cell-based, Salmonella typhi; conditions: for FIC index of Cefotaxime in combination with the peptide, S. typhi^R / FIC index of Chloramphenicol in combination with the peptide, S. typhi^R / FIC index of Erythromycin in combination with the peptide, S. typhi^R: FIC(A) = MIC of antibiotic in the presence of peptide / MIC of antibiotic alone; for FIC index of peptide in combination with Cefotaxime, S. typhi^R / FIC index of peptide in combination with Chloramphenicol, S. typhi^R / FIC index of peptide in combination with Erythromycin, S. typhi^R: checkerboard, FIC(A)+FIC(P); for FIC index of peptide in combination with Cefotaxime, S. typhi^R / FIC index of peptide in combination with Chloramphenicol, S. typhi^R / FIC index of peptide in combination with Erythromycin, S. typhi^R / MIC of antibiotic alone, S. typhi: 37 °C, 24 h; for MIC of antibiotic alone, S. typhi: resistant strain, MTT indicator
MRSA [6] = assay type: cell-based, methicillin-resistant Staphylococcus aureus; conditions: micro broth dilution, 37 °C, 24 h, MTT indicator, triplicates
[7] = tested on: microorganisms tested (standard and resistant bacterial strains); assay: MIC range over the strains tested and therapeutic index; assay type: cell-based; conditions: for MIC range: range over the strains tested, micro broth dilution
[8] = checkerboard, FIC(A)+FIC(P), 37 °C, 24 h

Row | Compound | Minimum inhibitory concentration; MIC, K. pneumoniae (K. pneumoniae) [µM] | Minimum inhibitory concentration; MIC, E. coli^N [1] [µM] | Minimum inhibitory concentration; MIC, S. typhi^N (S. typhi^N) [µM] | MHC (minimum concentration of peptide that causes hemolysis) (human erythrocytes) [mM] | Minimum inhibitory concentration; MIC, E. coli^R [2] [µM] | FIC index of Cefotaxime in combination with the peptide, E. coli^R (E. coli^R) | FIC index of Chloramphenicol in combination with the peptide, E. coli^R (E. coli^R) | FIC index of Erythromycin in combination with the peptide, E. coli^R (E. coli^R) | FIC index of Cefotaxime in combination with the peptide, MRSA (MRSA [3]) | FIC index of Chloramphenicol in combination with the peptide, MRSA (MRSA [3]) | FIC index of Erythromycin in combination with the peptide, MRSA (MRSA [3]) | Minimum inhibitory concentration; MIC, S. typhi^R (S. typhi^R [4]) [µM] | Minimum inhibitory concentration; MIC, S. pyogenes (S. pyogenes) [µM] | Minimum inhibitory concentration; MIC, S. aureus (S. aureus) [µM] | FIC index of Cefotaxime in combination with the peptide, S. typhi^R (S. typhi^R [5]) | FIC index of Chloramphenicol in combination with the peptide, S. typhi^R (S. typhi^R [5]) | FIC index of Erythromycin in combination with the peptide, S. typhi^R (S. typhi^R [5]) | Minimum inhibitory concentration; MIC, MRSA (MRSA [6]) [µM] | MIC range [7] [µM] | MIC of antibiotic alone, MRSA (MRSA [3]; 37 °C, 24 h) [µM] | also measured
1 | KGIKGALSILFAL [BRGP-004] | >1879 | >1879 | >1879 | 1.503 | >1879 | 0.50 | 0.50 | 0.12 | 0.50 | 0.50 | 0.54 | >1879 | >1879 | >1879 | 1.00 | 1.00 | 0.50 | >1879 | – | – | –
2 | GIKGALKSILFAL [BRGP-005] | >1879 | 470 | >1879 | 0.188 | 235 | 0.25 | 0.25 | 0.12 | 0.50 | 0.50 | 1.00 | 470 | 470 | >1879 | 0.50 | 1.00 | 0.50 | >1879 | 235 to 470 | – | Therapeutic Indices (MHC/MIC) ([7]; range over the MIC range): 0.80 to 0.40; FIC index of peptide in combination with Cefotaxime, E. coli^R (E. coli^R): 2.25; FIC index of peptide in combination with Chloramphenicol, E. coli^R (E. coli^R): 1.25; FIC index of peptide in combination with Erythromycin, E. coli^R (E. coli^R): 0.37; FIC index of peptide in combination with Cefotaxime, S. typhi^R (S. typhi^R [5]): 0.75; FIC index of peptide in combination with Chloramphenicol, S. typhi^R (S. typhi^R [5]): 1.032; FIC index of peptide in combination with Erythromycin, S. typhi^R (S. typhi^R [5]): 0.63
3 | AILFLSLGAIKKG [BRGP-001] | 117 | >1879 | >1879 | 1.127 | >1879 | – | 0.25 | 0.12 | 0.50 | 0.063 | 0.54 | >1879 | >1879 | 117 | 0.50 | 0.50 | 0.50 | 15 | 15 to 117 | – | FIC index of peptide in combination with Chloramphenicol, MRSA (MRSA [3]; [8]): 2.063; FIC index of peptide in combination with Erythromycin, MRSA (MRSA [3]; [8]): 0.81
4 | KGGAIKSLFLILA [BRGP-003] | >1879 | >1879 | >1879 | 1.127 | >1879 | 0.50 | 1.00 | 1.00 | 0.50 | 0.50 | 0.54 | >1879 | >1879 | >1879 | 1.00 | 1.00 | – | >1879 | – | – | –
5 | O=C(N[C@H](CO)[C@H](O)c1ccc([N+](=O)[O-])cc1)C(Cl)Cl [Chloramphenicol, reference compound] | – | – | – | – | – | – | – | – | – | – | – | – | – | – | – | – | – | – | – | 193.4 | MIC of antibiotic alone, E. coli (E. coli^R): 386.8 µM; MIC of antibiotic alone, S. typhi (S. typhi^R [5]): 6 µM
6 | FALSILGALGIKK [BRGP-006] | 1879 | 470 | >1879 | 1.503 | 470 | 0.50 | 0.25 | 0.12 | 0.50 | 0.25 | 1.00 | 235 | 470 | 939 | 0.50 | 0.50 | 1.00 | 235 | 235 to 1879 | – | FIC index of peptide in combination with Cefotaxime, E. coli^R (E. coli^R): 2.50; FIC index of peptide in combination with Chloramphenicol, E. coli^R (E. coli^R): 0.75; FIC index of peptide in combination with Erythromycin, E. coli^R (E. coli^R): 0.25; FIC index of peptide in combination with Cefotaxime, MRSA (MRSA [3]; [8]): 0.75; FIC index of peptide in combination with Chloramphenicol, MRSA (MRSA [3]; [8]): 0.75; FIC index of peptide in combination with Erythromycin, MRSA (MRSA [3]; [8]): 1.030; FIC index of peptide in combination with Cefotaxime, S. typhi^R (S. typhi^R [5]): 1.00; FIC index of peptide in combination with Chloramphenicol, S. typhi^R (S. typhi^R [5]): 0.53; FIC index of peptide in combination with Erythromycin, S. typhi^R (S. typhi^R [5]): 1.50
7 | PQQYPEMNTRRNW [BRGP-007] | >1454 | >1454 | >1454 | 1.454 | >1454 | – | – | – | – | – | – | >1454 | >1454 | >1454 | – | – | – | >1454 | – | – | –
8 | CC[C@H]1OC(=O)[C@H](C)[C@@H](O[C@H]2C[C@@](C)(OC)[C@@H](O)[C@H](C)O2)[C@H](C)[C@@H](O[C@@H]2O[C@H](C)C[C@H](N(C)C)[C@H]2O)[C@](C)(O)C[C@@H](C)C(=O)[C@H](C)[C@@H](O)[C@]1(C)O [Erythromycin, reference compound] | – | – | – | – | – | – | – | – | – | – | – | – | – | – | – | – | – | – | – | 1.3 | MIC of antibiotic alone, E. coli (E. coli^R): 85.2 µM; MIC of antibiotic alone, S. typhi (S. typhi^R [5]): 21.3 µM
9 | FLIKSLAGAKGIL [BRGP-002] | >1879 | >1879 | >1879 | 1.879 | >1879 | – | 0.50 | – | 0.50 | 1.00 | 1.00 | >1879 | >1879 | >1879 | 1.00 | 1.00 | – | >1879 | – | – | –
10 | CO/N=C(\C(=O)N[C@@H]1C(=O)N2C(C(=O)O)=C(COC(C)=O)CS[C@H]12)c1csc(N)n1 [Cefotaxime, reference compound] | – | – | – | – | – | – | – | – | – | – | – | – | – | – | – | – | – | – | – | 34.3 | MIC of antibiotic alone, S. typhi (S. typhi^R [5]): 68.6 µM
